According to US12479794B2, “Acetophenone oxime compound and application thereof” (Medshine Discovery Inc., priority 2020, dated 2025):

Columns and labels:
S1P1 = target: T1, S1P1 (Homo sapiens, UniProt P21453); assay: In vitro agonistic activity on S1P1, U2OS-EDG1 cells, LiveBLAzer FRET B/G; assay type: cell-based
T1 construct: host or cells: U2OS
Method: Assay Example 1: In Vitro Evaluation of the Agonistic Activity of the Compounds of the Present Disclosure on S1P1
Object of the assay: To detect the agonistic activity of compounds on S1P1
• 1. Cells U2OS-EDG1 (Batch No.: Invitrogen-K1520) were taken out of a liquid nitrogen tank and placed in a 37° C. water bath to thaw quickly; • 2. The cell suspension was aspirated into a 15 ml centrifuge tube, resuspended in 5 ml of preheated medium, and centrifuged at 1000 rpm for 5 min; • 3. The supernatant was discarded. The cells were resuspended in 10 ml of medium, transferred into a T75 culture flask, and cultivated in an incubator with 5% CO2 at 37° C. II. Agonist Assay • 1. The compounds were diluted to working concentrations, and serially diluted 3-fold by Echo 555 (manufacturer: Labcyte) to obtain 10 concentrations; 200 nL of each concentration of the compound was transferred to a cell plate and centrifuged at 1000 rpm for 15 seconds; • 2. Culture medium was aspirated from the culture flask; 4 mL of Dulbecco's phosphate buffer (DPBS, supplier: Coring, item No.: 21-031-CVR, batch No.: 03318006) was added, and the residual serum was washed away; 2 mL of trypsin was added; The mixture was incubated in an incubator at 37° C. for 2 min, and the cells were digested; 10 mL of seeding medium was added to resuspend the cells; 0.6 mL of cell suspension was taken out and counted; • 3. The density of cells was adjusted to 1.88E+05 cells/mL using seeding medium, with 40 μL per well (7500\well); 40 μL of FreeStyle™ Expression medium was added around the cell plate; The plate was let stand at room temperature for 15 min and incubated at 37° C. with 5% CO2 for 20 hours. III. Signal Detection • 1. LiveBLAzer™-FRET B/G Substrate (CCF4-AM) assay reagents were formulated according to the instructions; • 2. 8 μL of 6×Substrate Mixture was added to each well of the cell plate; The plate was centrifuged at 1000 rpm for 15 seconds, covered with a film, and incubated at 23° C. for 2 hours; The cell plate was subjected to Envision […] detection. IV. Data Analysis • 1. The raw data were converted into % Effect by using an equation, and the EC50 value can be obtained by curve fitting with four parameters [“log(agonist) vs. response—Variable slope” model in GraphPad Prism]; • 2. Calculation formula: Ratio=(460 nm−blank)/(535 nm−blank) % Effect=(SampleRatio−Ave LCRatio)/(Ave HCRatio−Ave LCRatio)×100%

[1] = Metabolite identification after incubation in human hepatocytes; assay type: in vitro ADME; conditions: 10 μM, 37° C., 2 hours
Method: Assay Example 4: Analysis and Identification of Metabolites of the Compound in Human Liver Microsome and Hepatocyte Incubation System
By using high-resolution mass spectrometry, the metabolite produced by the incubation of compound 32B in human liver microsomes and human hepatocytes was found, and identified for its structure; the percentage content of compound 32B and its metabolite was calculated by using LC-UV; and the possible biotransformation pathway of compound 32B in human liver microsomes and human hepatocytes in vitro was studied.
Compound 32B (10 μM) was incubated in mouse, rat, canine, monkey, and human hepatocyte systems at 37° C. for 120 min. 7-ethoxycoumarin (7-EC, 30 μM) was used as a positive control to evaluate the enzymatic metabolic activity in the hepatocyte incubation system. The incubated sample was analyzed by LC-UV-MS. The structure of each metabolite was resolved and identified based on its primary and secondary mass spectrometry signals and/or comparison with a standard. The relative percentage of the UV-integrated peak area of each metabolite was given through data collected from the sample by HPLC-UV-MS, and the possible structure of the metabolite and its possible metabolic pathway in various genera of hepatocytes were inferred from the mass spectrometry information of the metabolite.

S1P2 = target: T2, S1P2 (Homo sapiens, UniProt O95136); assay: In vitro agonistic activity on S1P2, PathHunter cell line; assay type: cell-based; conditions: PathHunter cells
T2 construct: expressed in transfected cells
T2 sequence (O95136 whole entry): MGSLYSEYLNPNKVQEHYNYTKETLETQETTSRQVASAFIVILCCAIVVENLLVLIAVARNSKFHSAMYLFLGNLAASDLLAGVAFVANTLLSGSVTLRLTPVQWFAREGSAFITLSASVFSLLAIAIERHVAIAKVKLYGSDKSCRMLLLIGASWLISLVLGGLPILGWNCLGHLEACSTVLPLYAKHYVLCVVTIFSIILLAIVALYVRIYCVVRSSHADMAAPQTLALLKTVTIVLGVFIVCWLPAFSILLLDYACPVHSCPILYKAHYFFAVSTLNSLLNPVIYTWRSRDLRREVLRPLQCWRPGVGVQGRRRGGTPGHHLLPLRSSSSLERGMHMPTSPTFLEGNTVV
Method: (§1) Assay Example 5: In Vitro Evaluation of the Agonistic Activity of the Compound of the Present Disclosure on S1P2, S1P3 and S1P4
(§2) Object of the assay: To detect the agonistic activity of the compound on S1P2, S1P3, and S1P4
(§3) • 1. PathHunter cell line was expanded from freezer according to standard procedures. • 2. Cells were seeded into a white 384-well microplate in a total volume of 20 μL and incubated at 37° C. for an appropriate time prior to testing. II. Agonist Assay • 1. For the agonist assay, cells were incubated with a sample to induce a response. • 2. Stock solution was stored in a buffer at a concentration of 5 times the concentration to be tested. • 3. 5 μl of the stock solution sample at a concentration of 5 times the concentration to be tested was added to the cells and incubated at 37° C. or room temperature for 90-180 min with a vehicle concentration of 1%. III. Signal Detection • 1. […] Chemiluminescent Signal detection was performed using a PerkinElmer Envision™ instrument, and the microplate was read after signal generation. […] The activity of the compound was analyzed using the CBIS data analysis suite (ChemInnovation, CA). • 2. For the agonist mode assay, the percent activity was calculated using the following formula: % Activity=100%×(Mean RLU of the Assay Sample−Mean RLU of the Blank Control)/(Mean MAX Control Ligand−Mean RLU of the Blank Control).

S1P3 = target: T3, S1P3 (Homo sapiens, UniProt Q99500); assay: In vitro agonistic activity on S1P3, PathHunter cell line; assay type: cell-based; conditions: PathHunter cells
T3 construct: expressed in transfected cells
T3 sequence (Q99500 whole entry): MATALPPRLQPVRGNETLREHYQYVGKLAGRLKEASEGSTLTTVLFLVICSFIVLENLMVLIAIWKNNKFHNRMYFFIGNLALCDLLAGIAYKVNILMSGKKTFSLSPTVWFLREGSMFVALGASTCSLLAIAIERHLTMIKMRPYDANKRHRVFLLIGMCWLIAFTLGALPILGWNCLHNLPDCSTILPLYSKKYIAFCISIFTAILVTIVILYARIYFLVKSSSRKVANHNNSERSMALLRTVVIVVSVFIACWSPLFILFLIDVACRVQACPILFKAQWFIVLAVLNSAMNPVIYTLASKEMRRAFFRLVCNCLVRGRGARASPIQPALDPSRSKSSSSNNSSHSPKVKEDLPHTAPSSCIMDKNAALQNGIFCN
Method: as §1, §2, §3

S1P4 = target: T4, S1P4 (Homo sapiens, UniProt O95977); assay: In vitro agonistic activity on S1P4, PathHunter cell line; assay type: cell-based; conditions: PathHunter cells
T4 construct: expressed in transfected cells
T4 sequence (O95977 1-384): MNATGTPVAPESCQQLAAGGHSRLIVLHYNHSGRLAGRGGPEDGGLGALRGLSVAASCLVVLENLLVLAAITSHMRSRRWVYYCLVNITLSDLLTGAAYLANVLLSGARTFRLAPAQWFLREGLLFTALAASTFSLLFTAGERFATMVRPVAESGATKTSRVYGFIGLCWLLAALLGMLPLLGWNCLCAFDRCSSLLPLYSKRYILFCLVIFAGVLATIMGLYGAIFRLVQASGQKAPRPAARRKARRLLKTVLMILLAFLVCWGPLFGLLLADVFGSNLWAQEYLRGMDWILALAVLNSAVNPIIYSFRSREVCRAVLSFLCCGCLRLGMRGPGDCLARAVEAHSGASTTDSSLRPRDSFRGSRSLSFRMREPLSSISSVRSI
Method: as §1, §2, §3

T1 sequence (P21453 whole entry): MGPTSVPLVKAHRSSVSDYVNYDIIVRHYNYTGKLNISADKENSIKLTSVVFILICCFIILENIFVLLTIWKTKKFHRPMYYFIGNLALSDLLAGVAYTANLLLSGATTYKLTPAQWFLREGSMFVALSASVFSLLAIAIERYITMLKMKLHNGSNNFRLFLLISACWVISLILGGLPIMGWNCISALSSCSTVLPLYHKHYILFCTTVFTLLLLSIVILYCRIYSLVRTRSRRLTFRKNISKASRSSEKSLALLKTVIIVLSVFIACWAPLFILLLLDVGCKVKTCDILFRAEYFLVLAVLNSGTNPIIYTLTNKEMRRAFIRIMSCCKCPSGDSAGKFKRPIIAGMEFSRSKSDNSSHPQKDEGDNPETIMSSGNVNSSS

CC(=NOCc1ccc(OC(C)C)c(C(F)(F)F)c1)c1ccc2c(c1)CCC2N1CC(C(=O)O)C1 (single isomer, unassigned) [Compound 32B]
EC50 (S1P1): 1.15 nM | Emax of agonistic activity on S1P1 (S1P1; % Effect): nM, 103.4% | Metabolites detected [1]: no other metabolite was detected | Relative abundance of the original drug [1]: 100.00% | EC50 (S1P2): > 300 nM | EC50 (S1P3): > 300 nM | EC50 (S1P4): > 300 nM
